Data as given in US20130338190A1, “PHARMACEUTICALLY ACCEPTABLE SALT OF (E)-N-[4-[[3-CHLORO-4-(2-PYRIDYLMETHOXY)PHENYL]AMINO]-3-CYANO-7-ETHOXY-6-QUINOLYL]-3-[(2R)-1-METHYLPYRROLIDIN-2-YL]PROP-2-ENAMIDE, PREPARATION METHOD THEREOF, AND MEDICAL USE THEREOF” (priority 2011, published 2013).
Counter-ions that a name gives are not always drawn. Like-named read-outs stand apart in the source and are kept apart here.

Tests used:
[1] = tested on: human epidermoid carcinoma A431 cells, which have high expression of EGFR; experiment: EGFR cell proliferation inhibition assay (SRB, 72 hours); assay type: cell-based; conditions: A431 cells, 72 hours, SRB, read-out: IC50 (EGFR/A431)
Description: The activity is represented by the IC50 value. The general procedures of the assay were as follows: the cancer cells A431 highly expressing EGFR were chosen and seeded in a 96-well cell culture plate at a suitable density (e.g., 5000 cells/mL medium). The cells were then incubated in a carbon dioxide incubator until they reached 85% confluence. Then, the cell culture medium was replaced by fresh medium containing the test compounds with serial dilutions (general 6 to 7 concentrations). The cells were put back in the incubator and cultured continuously for 72 hours. The activity of the test compounds for inhibiting the cell proliferation was determined by using a Sulforhodamine B (SRB) method. IC50 values were calculated by the rate of inhibition at various concentrations of the test compounds.

[2] = tested on: human carcinoma SK-BR-3 cells, which have high expression of HER-2; experiment: HER-2 cell activity assay (SRB, 96 hours); assay type: cell-based; conditions: read-out: IC50 (HER-2/SK-BR-3)
Source text: The following in vitro assay was to determine the activity of the compounds of the present invention for inhibiting the proliferation of human carcinoma SK-BR-3 cells, which have high expression of HER-2.
The following in vitro assay was to determine the activity of the test compounds for inhibiting the angiogenesis and proliferation of cancer cells, which have high expression of HER-2. The activity is represented by the IC50 value. The general procedure of the assay was as follows: the cancer cells line SK-BR-3 highly expressing HER-2 was chosen and the cells were seeded in a 96-well cell culture plate at a suitable density. The cells then were incubated in a carbon dioxide incubator until they reached 60% confluence. Then, the cell culture medium was replaced by fresh medium with the test compounds at various concentrations (6 to 7 concentrations). The cells were put back in the incubator and cultured continuously for 96 hours. The activity of the test compounds for inhibiting the cell proliferation was determined by using a Sulforhodamine B (SRB) method. IC50 values of test cells were calculated by the rate of inhibition at various concentrations of the test compounds.

[3] = biological target: HER-2 kinase (Homo sapiens, UniProt P04626); experiment: HER-2 kinase activity assay (time-resolved fluorescence); assay type: biochemical; conditions: table of the HER-2 kinase activity assay; human-derived recombinant HER-2 kinase, 20 μM ATP, 25° C., 45 minutes; read-out: IC50 (HER-2/SK-BR-3)
Description: The in vitro HER-2 kinase activity was tested by the following assay.
The following assay was used to determine the activity of the compounds of the present invention for inhibiting HER-2 kinase. The half maximal inhibitory concentration IC50 (the concentration of the test compound showing 50% inhibition of the enzyme activity) of each compound was determined by incubating several different concentrations of the test compounds with a specific enzyme and substrate. […] The HER-2 kinase activity was determined by using a time-resolved fluorescence method.

[4] = Solubility assay; assay type: physicochemical
Description: According to the conventional solubility measurement, the solubility of a compound of formula (I) and salts thereof was determined in three different systems: water, physiological saline and methanol.

[5] = Pharmacokinetics assay in rats (LC/MS/MS of plasma); assay type: in vivo, Sprague Dawley (SD) rats; conditions: both sexes, Sprague-Dawley, rat, plasma, 25 mg/kg; for AUC(0-t): read-out: AUC0-t; for MRT: read-out: MRT; for Cmax: read-out: Cmax; for Vd/F: read-out: Vz/F; for bioavailability: oral absolute bioavailability, 25 mg/kg (calculated by the base part)
Description: The rats were used as test animals. The compound of formula (I) and other salts thereof were administrated intragastrically, and a maleate salt of the compound of formula (I) was injected into the tail vein to determine the drug concentration in plasma at different time points by an LC/MS/MS method. The pharmacokinetic behavior, characteristics and the oral absolute bioavailability of the present compounds were studied and evaluated in rats. […] 28 healthy adult Sprague Dawley (SD) rats, half male and half female, were purchased from SINO-BRITSH SIPPR/BK LAB. ANIMAL LTD., CO, License number: SCXK (Shanghai) 2008-0016, and divided into 7 groups (4 rats in each group). The intravenous injection group: a suitable amount of compounds was weighed, dissolved in DMSO and diluted with normal saline to the final volume. […] healthy adult SD rats, half male and half female, were divided into 7 groups (4 rats in each group). […] For the intravenous injection group, blood samples (0.2 mL) were taken from orbital sinus before administration and at 2 min, 15 min, 30 min, 1.0 […] and 36.0 h after administration, stored in heparinized tubes and centrifuged for 10 minutes at 3,500 rpm to separate blood plasma. The plasma samples were stored at -20° C. For the intragastrical administration group, blood samples were taken before administration and at 0.5, 1.0, 2.0, 3.0, 4.0, 6.0, 8.0, 12.0, 24.0 and 36.0 hours after administration. The method to treat the samples was the same as with the intravenous injection group. The rats were fed 2 hours after administration.

[6] = Solubility assay; assay type: physicochemical; remark: listed apart in the source

Chain of HER-2 kinase (P04626 23-1255): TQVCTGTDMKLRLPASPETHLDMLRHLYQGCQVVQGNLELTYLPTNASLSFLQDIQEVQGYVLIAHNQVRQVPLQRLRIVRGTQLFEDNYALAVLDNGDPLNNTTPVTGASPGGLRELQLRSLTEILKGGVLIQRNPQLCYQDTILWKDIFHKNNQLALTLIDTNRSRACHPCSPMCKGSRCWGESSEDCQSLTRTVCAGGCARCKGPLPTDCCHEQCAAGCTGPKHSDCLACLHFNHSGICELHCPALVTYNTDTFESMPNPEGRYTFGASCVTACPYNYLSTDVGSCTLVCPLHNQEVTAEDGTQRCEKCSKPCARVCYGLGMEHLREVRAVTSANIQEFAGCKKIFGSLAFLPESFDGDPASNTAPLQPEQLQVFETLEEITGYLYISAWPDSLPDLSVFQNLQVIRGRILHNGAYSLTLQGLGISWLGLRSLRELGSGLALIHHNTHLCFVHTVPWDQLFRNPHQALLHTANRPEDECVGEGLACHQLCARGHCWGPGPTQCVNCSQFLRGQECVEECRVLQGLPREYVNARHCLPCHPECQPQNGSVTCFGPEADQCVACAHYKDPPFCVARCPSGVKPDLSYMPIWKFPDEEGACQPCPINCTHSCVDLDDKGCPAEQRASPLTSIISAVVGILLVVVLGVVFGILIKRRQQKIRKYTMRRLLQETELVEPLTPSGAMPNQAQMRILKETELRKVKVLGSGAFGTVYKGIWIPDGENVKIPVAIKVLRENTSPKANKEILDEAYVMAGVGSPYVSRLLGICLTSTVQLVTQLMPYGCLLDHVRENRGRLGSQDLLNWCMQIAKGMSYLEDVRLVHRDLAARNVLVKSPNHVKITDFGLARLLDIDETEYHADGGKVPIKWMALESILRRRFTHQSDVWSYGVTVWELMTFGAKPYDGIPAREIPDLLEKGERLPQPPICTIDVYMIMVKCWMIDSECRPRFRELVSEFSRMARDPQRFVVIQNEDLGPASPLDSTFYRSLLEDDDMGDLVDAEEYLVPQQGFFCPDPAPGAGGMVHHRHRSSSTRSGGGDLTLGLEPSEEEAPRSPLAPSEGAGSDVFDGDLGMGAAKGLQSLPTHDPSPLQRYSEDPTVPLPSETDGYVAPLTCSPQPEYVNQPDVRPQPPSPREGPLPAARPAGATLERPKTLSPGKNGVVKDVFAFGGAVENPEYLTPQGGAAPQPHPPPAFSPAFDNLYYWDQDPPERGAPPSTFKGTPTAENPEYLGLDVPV

SMILES	IC50 [3]	half-life ([5]; iv, vein (tail vein injection))	AUC(0-t) ([5]; iv, vein (tail vein injection))	MRT ([5]; iv, vein (tail vein injection))	CL/F ([5]; po, gavage)	half-life ([5]; po, gavage)	AUC(0-t) ([5]; po, gavage)	Cmax ([5]; po, gavage)	MRT ([5]; po, gavage)	Vd/F ([5]; po, gavage)	bioavailability ([5]; po)	also measured
CCOc1cc2ncc(C#N)c(Nc3ccc(OCc4ccccn4)c(Cl)c3)c2cc1NC(=O)/C=C/[C@H]1CCCN1C.Cc1ccc(S(=O)(=O)O)cc1 [Example 7, (E)-N-[4-[[3-chloro-4-(2-pyridylmethoxy)phenyl]amino]-3-cyano-7-ethoxy-6-quinolyl]-3-[(2R)-1-methylpyrrolidin-2-yl]prop-2-enamide p-toluenesulfonate]	64 nM	3.12 ± 0.37 h	113000 ± 62100 ng·h/mL	4.2 ± 0.99 h	10.5 mL/min/kg	3.52 ± 0.69 h	44300 ± 16000 ng·h/mL	5160 ± 1640 ng/mL	7.9 ± 0.74 h	3.23 ± 1.65 L/kg	39.2%	IC50 ([1]; p-toluenesulfonate): 38 nM; IC50 ([2]; p-toluenesulfonate): 45 nM; solubility ([4]; physiological saline, saline or isotonic, physiological saline, read-out: Solubility Value, Physiological saline): 100 µg/mL; solubility ([4]; water, read-out: Solubility Value, Water): 5390 µg/mL; solubility ([6]; 0.1 M hydrochloric acid, simulated gastric fluid): 31900 µg/mL
CCOc1cc2ncc(C#N)c(Nc3ccc(OCc4ccccn4)c(Cl)c3)c2cc1NC(=O)/C=C/[C@H]1CCCN1C [Example 9, (E)-N-[4-[[3-chloro-4-(2-pyridylmethoxy)phenyl]amino]-3-cyano-7-ethoxy-6-quinolyl]-3-[(2R)-1-methylpyrrolidin-2-yl]prop-2-enamide dihydrochloride]	46 nM	4.75 ± 0.32 h	115000 ± 33100 ng·h/mL	5.54 ± 0.58 h	6.67 mL/min/kg	3.47 ± 0.18 h	66100 ± 17200 ng·h/mL	5870 ± 1610 ng/mL	7.96 ± 0.7 h	1.99 ± 0.49 L/kg	57.6%	IC50 ([1]; dihydrochloride): 49 nM; IC50 ([2]; dihydrochloride): 69 nM; Solubility Value, Physiological saline ([4]; physiological saline, dihydrochloride): 0.2 mg/mL; Solubility Value, Water ([4]; water, dihydrochloride): 150 µg/mL; Solubility Value, 0.1M Hydrochloric acid ([6]; 0.1M hydrochloric acid, dihydrochloride): 16590 µg/mL
